Drawing on ChEMBL document CHEMBL1154080, “2D-QSAR and 3D-QSAR/CoMFA analyses of the N-terminal substituted anthranilic acid based CCK(1) receptor antagonists: 'Hic Rhodus, hic saltus'” (Bioorg Med Chem, 2009), this text covers IC50 and inhibition for 45 molecules.

The target of experiment [1] is T1, Cholecystokinin receptor type A (Rattus norvegicus, UniProt P30551).
T1 sequence (P30551 whole entry): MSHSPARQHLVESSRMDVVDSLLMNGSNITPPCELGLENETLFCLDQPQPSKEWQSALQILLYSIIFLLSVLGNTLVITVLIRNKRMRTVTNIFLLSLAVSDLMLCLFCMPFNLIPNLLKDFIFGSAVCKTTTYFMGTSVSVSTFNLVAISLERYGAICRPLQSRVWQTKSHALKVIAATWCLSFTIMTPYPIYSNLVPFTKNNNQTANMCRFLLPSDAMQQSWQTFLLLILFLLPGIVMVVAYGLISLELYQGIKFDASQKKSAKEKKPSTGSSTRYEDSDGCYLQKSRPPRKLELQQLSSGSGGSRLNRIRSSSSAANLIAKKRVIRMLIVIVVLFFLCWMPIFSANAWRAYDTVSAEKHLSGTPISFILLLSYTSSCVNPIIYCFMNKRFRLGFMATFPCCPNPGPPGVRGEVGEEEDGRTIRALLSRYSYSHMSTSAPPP
Description: Displacement of [125I]-CCK8 from CCK1 receptor in rat pancreatic acinar cells. Background: In a radioligand displacement assay an active substance lowers the binding of a labelled ligand.

The nature of experiment [2]: Displacement of [125I]-CCK8 from CCK2 receptor in guinea pig cerebral cortex. The class given is tissue-based, Cavia porcellus.
The species named for the next experiment is Cavia porcellus. Briefly: Displacement of [125I]-CCK8 from CCK2 receptor in guinea pig cerebral cortex at 30 uM. The experiment is classed as tissue-based.
Experiment [3] addresses T2, Cholecystokinin receptor type A (Rattus norvegicus) (UniProt P30551).
T2 sequence (whole entry): T1 sequence (P30551 whole entry)
Description: Displacement of [125I]-CCK8 from CCK1 receptor in rat pancreatic acinar cells 10 uM.

In experiment [4] the target is T2, Cholecystokinin receptor type A (Rattus norvegicus). Description: Displacement of [125I]-CCK8 from CCK1 receptor in rat pancreatic acinar cells at 3 uM.

Structures are written as SMILES.

On to `O=C(Nc1ccccc1C(=O)N[C@H](Cc1ccccc1)C(=O)O)c1cc2cc(F)ccc2[nH]1`, for which the IC50 was determined as 0.151 µM in experiment [1] and 67.9 µM in experiment [2].

Take `O=C(Nc1ccccc1C(=O)N[C@H](Cc1ccccc1)C(=O)O)c1cc2cccc(F)c2[nH]1`: the IC50 is 0.055 µM in experiment [1] and 19.8 µM in experiment [2].

With `O=C(Nc1ccccc1C(=O)N[C@@H](Cc1ccccc1)C(=O)O)c1cc2cccc(F)c2[nH]1`, the IC50 in experiment [1] was 3.55 µM; in experiment [2], 8.9 µM.

With `O=C(Nc1ccccc1C(=O)N[C@@H](Cc1ccccc1)C(=O)O)c1cc2cc(F)ccc2[nH]1`, the inhibition in the experiment filed under Cavia porcellus is 20%. The IC50 in experiment [1] worked out at 30.1 µM.

`O=C(Nc1ccccc1C(=O)N[C@H](Cc1ccccc1)C(=O)O)c1cc2ccccc2[nH]1`: the results for the IC50 in experiment [1] and in experiment [2] were 0.106 µM and 17 µM, respectively.

`O=C(Nc1ccccc1C(=O)NC(Cc1ccccc1)C(=O)O)c1cc2ccccc2[nH]1` (racemic) showed an IC50 in experiment [2] of 16.4 µM.

In the experiment filed under Cavia porcellus, `O=C(/C=C/c1ccccc1)Nc1ccccc1C(=O)NC(Cc1ccccc1)C(=O)O` (racemic) returned an inhibition of 49%.

For the molecule `Cn1c(C(=O)Nc2ccccc2C(=O)NC(Cc2ccccc2)C(=O)O)cc2ccccc21` (racemic), the IC50 in experiment [2] was found to be 10 µM.

Regarding `O=C(Nc1ccccc1C(=O)NC(Cc1ccccc1)C(=O)O)C1=CC2CCCC2N1` (racemic), the IC50 in experiment [1] was 13.1 µM; in experiment [2], 60.5 µM.

For the molecule `O=C(Nc1ccccc1C(=O)NC(Cc1ccccc1)C(=O)O)c1cc2cc(Cl)ccc2[nH]1` (racemic), the inhibition in the experiment filed under Cavia porcellus amounted to 31%. Also, the IC50 in experiment [1] was 1.84 µM.

`O=C(Nc1ccccc1C(=O)NC(Cc1ccccc1)C(=O)O)c1cc2cc([N+](=O)[O-])ccc2[nH]1` (racemic) returned an inhibition in the experiment filed under Cavia porcellus of 31%. Further, in experiment [1], the IC50 was determined as 3.55 µM.

As for `O=C(Nc1ccccc1C(=O)NC(Cc1ccccc1)C(=O)O)c1cc2cc(F)ccc2[nH]1` (racemic), the IC50 was 0.314 µM in experiment [1] and 10.6 µM in experiment [2].

Turning to `O=C(Nc1ccccc1C(=O)NC(Cc1ccccc1)C(=O)O)c1cc2c([nH]1)CCCC2` (racemic), in experiment [2], the IC50 was 70 µM.

In turn, `O=C(Nc1ccccc1C(=O)NC(Cc1ccccc1)C(=O)O)c1ccc2ccccc2n1` (racemic) came in with an IC50 in experiment [2] of 14.6 µM. The inhibition in experiment [3] came to 48%.

`O=C(NC(Cc1ccccc1)C(=O)O)c1ccccc1NC(=O)c1ccnc2ccccc12` (racemic): in experiment [2], the IC50 came to 15 µM. Besides, the inhibition in experiment [4] was < 20%.

`O=C(CCc1c[nH]c2ccccc12)Nc1ccccc1C(=O)NC(Cc1ccccc1)C(=O)O` (racemic): in experiment [2], the IC50 was 13.4 µM.

As to `O=C(Nc1ccccc1C(=O)NC(Cc1ccccc1)C(=O)O)c1cc2cccc(C(F)(F)F)c2[nH]1` (racemic), the results for the IC50 in experiment [1] and in experiment [2] were 0.538 µM and 11.2 µM, respectively.

`O=C(NC(Cc1ccccc1)C(=O)O)c1ccccc1NS(=O)(=O)c1cccc2ccccc12` (racemic) displayed an IC50 in experiment [2] of 5.9 µM. In experiment [3], the inhibition was < 20%.

As to `O=C(Nc1ccccc1C(=O)NC(Cc1ccccc1)C(=O)O)c1nc2ccccc2[nH]1` (racemic), in experiment [2], the IC50 came out at 10.3 µM.

For the molecule `O=C(NC(Cc1ccccc1)C(=O)O)c1ccccc1NC(=O)c1nccc2ccccc12` (racemic), the inhibition in the experiment listed under Cavia porcellus worked out at 53%. Besides, the IC50 in experiment [1] came out at 13.3 µM.

With `O=C(Nc1ccccc1C(=O)NC(Cc1ccccc1)C(=O)O)c1cc2c(F)cccc2[nH]1` (racemic), the IC50 was 0.937 µM in experiment [1] and 9.6 µM in experiment [2].

On to `O=C(Nc1ccccc1C(=O)NC(Cc1ccccc1)C(=O)O)c1cc2cc(F)cc(F)c2[nH]1` (racemic), for which the IC50 in experiment [2] amounted to 9.4 µM. This molecule showed an inhibition in experiment [3] of 59%.

In turn, `O=C(Nc1ccccc1C(=O)NC(Cc1ccccc1)C(=O)O)c1cc2ccccc2s1` (racemic) showed an IC50 in experiment [2] of 10.8 µM.

On to `O=C(NC(Cc1ccccc1)C(=O)O)c1ccccc1NS(=O)(=O)c1ccc2ccccc2c1` (racemic), for which, in experiment [2], the IC50 was 7.31 µM. Besides, the inhibition in experiment [3] was < 20%.

In the case of `CC1=C(C(=O)Nc2ccccc2C(=O)NC(Cc2ccccc2)C(=O)O)Cc2ccccc21` (racemic), the concentration for half-maximal inhibition (IC50) in experiment [2] was 13.7 µM.

Turning to `Cc1ccc2[nH]c(C(=O)Nc3ccccc3C(=O)NC(Cc3ccccc3)C(=O)O)cc2c1` (racemic), the IC50 worked out at 2.79 µM in experiment [1] and 4.2 µM in experiment [2].

Turning to `Cc1cccc2cc(C(=O)Nc3ccccc3C(=O)NC(Cc3ccccc3)C(=O)O)[nH]c12` (racemic), the results for the IC50 in experiment [1] and in experiment [2] were 0.671 µM and 10.2 µM, respectively.

In experiment [2], `O=C(Nc1ccccc1C(=O)NC(Cc1ccccc1)C(=O)O)c1cnc2ccccc2c1` (racemic) came in with an IC50 of 18.7 µM.

For the molecule `O=C(NC(Cc1ccccc1)C(=O)O)c1ccccc1NC(=O)c1c[nH]c2ccccc12` (racemic), the IC50 in experiment [2] was 30.2 µM.

As for `O=C(Nc1ccccc1C(=O)NC(Cc1ccccc1)C(=O)O)c1cccs1` (racemic), the inhibition in the experiment listed under Cavia porcellus came out at 24%. This molecule also registered an IC50 in experiment [1] of 2.56 µM.

In experiment [2], `O=C(NC(Cc1ccccc1)C(=O)O)c1ccccc1NC(=O)c1cccc2ccccc12` (racemic) came in with an IC50 of 6.57 µM. Moreover, in experiment [3], the inhibition was < 20%.

In the case of `O=C(Nc1ccccc1C(=O)NC(Cc1ccccc1)C(=O)O)c1cc2cccc(F)c2[nH]1` (racemic), the values for the IC50 in experiment [1] and in experiment [2] were 0.159 µM and 18.7 µM, respectively.

For `O=C(Nc1ccccc1C(=O)NC(Cc1ccccc1)C(=O)O)c1cc2ccc(F)cc2[nH]1` (racemic), the IC50 in experiment [1] worked out at 0.294 µM; in experiment [2] it was 36.8 µM.

As to `O=C(NC(Cc1ccccc1)C(=O)O)c1ccccc1NC(=O)C12CC3CC(CC(C3)C1)C2` (racemic), in experiment [2], the IC50 is 14.5 µM. Besides, in experiment [3], the inhibition was < 20%.

`COc1ccc2[nH]c(C(=O)Nc3ccccc3C(=O)NC(Cc3ccccc3)C(=O)O)cc2c1` (racemic): the IC50 in experiment [2] is 17.1 µM. Also, the inhibition in experiment [4] came to 42%.

With `Cc1c(C(=O)Nc2ccccc2C(=O)NC(Cc2ccccc2)C(=O)O)[nH]c2ccccc12` (racemic), the IC50 in experiment [1] was determined as 2.06 µM; in experiment [2], 9.8 µM.

For `O=C(Nc1ccccc1C(=O)NC(Cc1ccccc1)C(=O)O)c1cc2ccccc2o1` (racemic), the values for the IC50 in experiment [1] and in experiment [2] were 0.891 µM and 13.7 µM, respectively.

For the molecule `CC(C)(C)C(=O)Nc1ccccc1C(=O)NC(Cc1ccccc1)C(=O)O` (racemic), the results for the inhibition (in the experiment filed under Cavia porcellus; in experiment [3]) were 24% and < 20%, respectively.

In the case of `CC(C)(C)CC(=O)Nc1ccccc1C(=O)NC(Cc1ccccc1)C(=O)O` (racemic), the inhibition in the experiment filed under Cavia porcellus was 37%; in experiment [3] it was < 20%.

Regarding `Cn1cccc1C(=O)Nc1ccccc1C(=O)NC(Cc1ccccc1)C(=O)O` (racemic), in experiment [4], the inhibition stood at 21%.

For the molecule `O=C(CCc1ccccc1)Nc1ccccc1C(=O)NC(Cc1ccccc1)C(=O)O` (racemic), the inhibition is 37% in the experiment filed under Cavia porcellus and < 20% in experiment [3].

`O=C(Cc1c[nH]c2ccccc12)Nc1ccccc1C(=O)NC(Cc1ccccc1)C(=O)O` (racemic): the inhibition is 23% in the experiment listed under Cavia porcellus and < 20% in experiment [3].

Regarding `O=C(Cc1ccccc1)Nc1ccccc1C(=O)NC(Cc1ccccc1)C(=O)O` (racemic), the inhibition is 36% in the experiment listed under Cavia porcellus and < 20% in experiment [3].

Molecule `O=C(Nc1ccccc1C(=O)NC(Cc1ccccc1)C(=O)O)c1ccc2[nH]ccc2c1` (racemic) gave an inhibition in experiment [3] of 41%.

As to `O=C(Nc1ccccc1C(=O)NC(Cc1ccccc1)C(=O)O)c1ccc[nH]1` (racemic), the inhibition in experiment [4] was < 20%.

Broadly, the IC50 is the concentration needed to halve the response being measured. High values mean a need for much substance, low ones inhibition by little substance. A word on the inhibition: it is the change of the read-out against control, counted positive when it falls. The low end stands for a response near the control, the high end for a response far below the control.
